Test results taken from article PMC10882491 (Chemical Science, 2024).

Legend:
AURKA = target: T1, AURKA (Homo sapiens, UniProt O14965); test: single-temperature TPP with PRM-MS in K562 lysate; assay type: cell-based
T1 sequence (O14965 1-403): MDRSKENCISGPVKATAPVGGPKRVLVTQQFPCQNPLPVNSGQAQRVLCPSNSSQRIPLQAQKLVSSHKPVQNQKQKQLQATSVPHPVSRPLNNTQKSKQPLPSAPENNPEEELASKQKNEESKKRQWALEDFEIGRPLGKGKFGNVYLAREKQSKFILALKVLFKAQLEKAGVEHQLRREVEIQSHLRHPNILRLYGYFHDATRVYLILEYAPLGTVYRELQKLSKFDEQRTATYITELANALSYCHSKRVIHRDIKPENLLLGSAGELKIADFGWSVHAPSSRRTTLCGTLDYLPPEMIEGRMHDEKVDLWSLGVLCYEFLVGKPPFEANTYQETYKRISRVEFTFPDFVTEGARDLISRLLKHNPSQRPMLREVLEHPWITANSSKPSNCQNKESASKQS

GRK2 = target: T2, GRK2 (Homo sapiens, UniProt P25098); test: western blot CETSA, isothermal dose-response at […] °C; assay type: biochemical
T2 sequence (P25098 1-689): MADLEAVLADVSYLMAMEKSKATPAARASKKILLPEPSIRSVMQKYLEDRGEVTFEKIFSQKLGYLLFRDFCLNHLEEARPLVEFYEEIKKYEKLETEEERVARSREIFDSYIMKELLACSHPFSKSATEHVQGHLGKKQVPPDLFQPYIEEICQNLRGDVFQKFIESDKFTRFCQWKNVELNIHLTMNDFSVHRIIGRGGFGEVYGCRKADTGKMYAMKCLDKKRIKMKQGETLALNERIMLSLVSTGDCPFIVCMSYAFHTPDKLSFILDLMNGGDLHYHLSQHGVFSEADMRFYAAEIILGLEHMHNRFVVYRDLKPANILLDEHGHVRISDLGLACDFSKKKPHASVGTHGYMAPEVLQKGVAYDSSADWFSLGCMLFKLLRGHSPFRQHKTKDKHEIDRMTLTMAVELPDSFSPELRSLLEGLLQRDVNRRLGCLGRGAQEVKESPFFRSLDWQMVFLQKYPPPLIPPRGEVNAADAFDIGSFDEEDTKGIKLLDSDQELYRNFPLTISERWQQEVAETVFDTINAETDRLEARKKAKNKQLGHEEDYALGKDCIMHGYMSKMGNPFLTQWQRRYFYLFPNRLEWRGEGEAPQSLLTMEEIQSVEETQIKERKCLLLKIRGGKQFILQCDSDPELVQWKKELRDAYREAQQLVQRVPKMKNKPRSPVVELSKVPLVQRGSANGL

PIP4K2C = PIP4K2C (Homo sapiens, UniProt Q8TBX8); test: NanoBRET target engagement in living HEK293 cells; assay type: cell-based
PIP4K2C, sequence (Q8TBX8 2-421): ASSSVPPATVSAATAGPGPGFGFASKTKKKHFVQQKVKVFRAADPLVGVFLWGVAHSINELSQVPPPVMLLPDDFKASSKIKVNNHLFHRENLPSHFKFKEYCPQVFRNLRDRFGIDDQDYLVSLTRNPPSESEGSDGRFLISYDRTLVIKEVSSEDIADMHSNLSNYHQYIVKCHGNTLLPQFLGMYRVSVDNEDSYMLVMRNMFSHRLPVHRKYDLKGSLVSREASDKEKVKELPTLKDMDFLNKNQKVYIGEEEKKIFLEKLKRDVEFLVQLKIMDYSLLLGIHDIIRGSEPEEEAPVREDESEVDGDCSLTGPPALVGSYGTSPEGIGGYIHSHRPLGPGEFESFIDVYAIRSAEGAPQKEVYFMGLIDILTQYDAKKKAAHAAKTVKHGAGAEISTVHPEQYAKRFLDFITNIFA

COc1cc(Nc2ncc3c(n2)-c2ccc(Cl)cc2C(c2c(F)cccc2OC)=NC3)ccc1C(=O)O [alisertib]
single-temperature TPP with PRM-MS in K562 lysate (AURKA): PRM data confirmed that all of these targets exhibit significantly higher abundance in the drug treatment groups

Cc1nc2ccc(CN(C)c3ccc(C(=O)N[C@@H](CCC(=O)O)C(=O)O)s3)cc2c(=O)[nH]1 [raltitrexed]
IC50 (GRK2): 6.7 µM

NC(=O)c1nc(Nc2ccccc2)sc1NC(=O)C1CCCCC1 [UNC3230]
IC50 (PIP4K2C): 0.25 µM
